Measurements as given in ChEMBL document CHEMBL3580646, “SAR and Structural Analysis of Siderophore-Conjugated Monocarbam Inhibitors of Pseudomonas aeruginosa PBP3” (ACS Med Chem Lett, 2015).
Values after ≈ are worked out from the molar mass of the structure shown.

Key:
Pseudomonas aeruginosa [1] = experiment: Activity of Pseudomonas aeruginosa PBP3 assessed as acylation rate constant
Pseudomonas aeruginosa [2] = experiment: Antibacterial activity against Pseudomonas aeruginosa PAO1 by broth microdilution method; format: functional
[3] = Unbound fraction in human plasma after 16 hrs by LC-MS/MS analysis
[4] = Half life of the compound at pH 7.4 at 37 degC; format: ADME
[5] = Half life in Han Wistar rat at 1 mg/kg, iv; format: ADME, organism-based; settings: in vivo
[6] = Clearance in Han Wistar rat at 1 mg/kg, iv; format: ADME, organism-based; settings: in vivo
[7] = Volume of distribution at steady state in Han Wistar rat at 1 mg/kg, iv; format: ADME, organism-based; settings: in vivo, read-out: Vdss
Pseudomonas aeruginosa [8] = experiment: Antibacterial activity against Pseudomonas aeruginosa; format: functional

C[C@H]1[C@H](NC(=O)/C(=N\OC(C)(C)C(=O)O)c2csc(N)n2)C(=O)N1C(=O)NS(=O)(=O)n1nc(-c2cc(=O)c(O)c[nH]2)n(CCCNS(C)(=O)=O)c1=O
K (Pseudomonas aeruginosa [1]): 3 ×10⁵ /M/s
MIC (Pseudomonas aeruginosa [2]): 0.5 µg/mL (≈ 0.633 µM)
fraction unbound at 16 h [3]: 0.08

C[C@H]1[C@H](NC(=O)/C(=N\OC(C)(C)C(=O)O)c2nc(N)sc2Cl)C(=O)N1C(=O)NS(=O)(=O)n1nc(-c2cc(=O)c(O)c[nH]2)n(CCCS(C)(=O)=O)c1=O
K (Pseudomonas aeruginosa [1]): 3.2 ×10⁵ /M/s
MIC (Pseudomonas aeruginosa [2]): 1 µg/mL (≈ 1.24 µM)
fraction unbound at 16 h [3]: 0.06
half-life [4]: 118 h

C[C@H]1[C@H](NC(=O)/C(=N\OC(C)(C)C(=O)O)c2csc(N)n2)C(=O)N1C(=O)NS(=O)(=O)n1nc(-c2cc(=O)c(O)c[nH]2)n(C[C@@H](O)CO)c1=O
K (Pseudomonas aeruginosa [1]): 7.2 ×10⁵ /M/s
MIC (Pseudomonas aeruginosa [2]): 0.25 µg/mL (≈ 0.343 µM)
fraction unbound at 16 h [3]: 0.04
half-life [4]: 117 h

C[C@H]1[C@H](NC(=O)/C(=N\OC(C)(C)C(=O)O)c2csc(N)n2)C(=O)N1C(=O)NS(=O)(=O)n1nc(-c2cc(=O)c(O)c[nH]2)n(CC2(CS(C)(=O)=O)CC2)c1=O
K (Pseudomonas aeruginosa [1]): 2.5 ×10⁵ /M/s
MIC (Pseudomonas aeruginosa [2]): 0.5 µg/mL (≈ 0.624 µM)
fraction unbound at 16 h [3]: 0.09
half-life [4]: 71 h

C=C[C@H]1[C@H](NC(=O)/C(=N\OC(C)(C)C(=O)O)c2csc(N)n2)C(=O)N1C(=O)NS(=O)(=O)n1nc(-c2cc(=O)c(O)c[nH]2)n(CCCS(C)(=O)=O)c1=O
K (Pseudomonas aeruginosa [1]): 2.1 ×10⁵ /M/s
half-life [5]: 2 h
clearance [6]: 11 mL/min/kg
MIC (Pseudomonas aeruginosa [2]): 0.5 µg/mL (≈ 0.635 µM)
half-life [4]: 53 h
Vd [7]: 0.18 L/kg

CC(C)(O/N=C(\C(=O)N[C@H]1CN(C(=O)NS(=O)(=O)n2nc(-c3cc(=O)c(O)c[nH]3)n(C[C@@H](O)CO)c2=O)C1=O)c1csc(N)n1)C(=O)O
K (Pseudomonas aeruginosa [1]): 8.1 ×10⁵ /M/s
MIC (Pseudomonas aeruginosa [2]): 0.78 µg/mL (≈ 1.09 µM)
fraction unbound at 16 h [3]: 0.06

CC(C)(O/N=C(\C(=O)N[C@@H]1C(=O)N(C(=O)NS(=O)(=O)n2nc(-c3cc(=O)c(O)c[nH]3)n(CCCS(C)(=O)=O)c2=O)C1(C)C)c1csc(N)n1)C(=O)O
K (Pseudomonas aeruginosa [1]): 1.1 ×10⁵ /M/s
MIC (Pseudomonas aeruginosa [2]): 8 µg/mL (≈ 10.1 µM)
half-life [4]: > 150 h

C[C@@H]1[C@H](NC(=O)/C(=N\OC(C)(C)C(=O)O)c2csc(N)n2)C(=O)N1C(=O)NS(=O)(=O)n1nc(-c2cc(=O)c(O)c[nH]2)n(CCCS(C)(=O)=O)c1=O
K (Pseudomonas aeruginosa [1]): 1.6 ×10⁵ /M/s
MIC (Pseudomonas aeruginosa [2]): 1 µg/mL (≈ 1.29 µM)
half-life [4]: 76 h

CCC[C@@H]1[C@H](NC(=O)/C(=N\OC(C)(C)C(=O)O)c2csc(N)n2)C(=O)N1C(=O)NS(=O)(=O)n1nc(-c2cc(=O)c(O)c[nH]2)n(CCCS(C)(=O)=O)c1=O
K (Pseudomonas aeruginosa [1]): 7.4 ×10⁵ /M/s
MIC (Pseudomonas aeruginosa [2]): 4 µg/mL (≈ 4.98 µM)
half-life [4]: > 150 h

C=C[C@@H]1[C@H](NC(=O)/C(=N\OC(C)(C)C(=O)O)c2csc(N)n2)C(=O)N1C(=O)NS(=O)(=O)n1nc(-c2cc(=O)c(O)c[nH]2)n(CCCS(C)(=O)=O)c1=O
K (Pseudomonas aeruginosa [1]): 1.9 ×10⁵ /M/s
MIC (Pseudomonas aeruginosa [2]): 2 µg/mL (≈ 2.54 µM)
half-life [4]: 38 h

C[C@H]1[C@H](NC(=O)/C(=N\OC(C)(C)C(=O)O)c2csc(N)n2)C(=O)N1S(=O)(=O)O [AZTREONAM]
MIC90 (Pseudomonas aeruginosa [8]): ≥ 1020 µg/mL
MIC (Pseudomonas aeruginosa [2]): 4 µg/mL (≈ 9.19 µM)

C[C@H]1[C@H](NC(=O)/C(=N\OC(C)(C)C(=O)O)c2csc(N)n2)C(=O)N1C(=O)NS(=O)(=O)n1nc(-c2cc(=O)c(O)cn2O)n(CCS(C)(=O)=O)c1=O
K (Pseudomonas aeruginosa [1]): 2.5 ×10⁵ /M/s
MIC (Pseudomonas aeruginosa [2]): 1 µg/mL (≈ 1.29 µM)
fraction unbound at 16 h [3]: 0.2
half-life [4]: 102 h

C[C@H]1[C@H](NC(=O)/C(=N\OC(C)(C)C(=O)O)c2csc(N)n2)C(=O)N1C(=O)NS(=O)(=O)n1nc(-c2cc(=O)c(O)c[nH]2)n(CCCCS(C)(=O)=O)c1=O
K (Pseudomonas aeruginosa [1]): 6.2 ×10⁵ /M/s
MIC (Pseudomonas aeruginosa [2]): 0.25 µg/mL (≈ 0.317 µM)
fraction unbound at 16 h [3]: 0.07
half-life [4]: 100 h

Cn1c(-c2cc(=O)c(O)c[nH]2)nn(S(=O)(=O)NC(=O)N2C[C@H](NC(=O)/C(=N\OC(C)(C)C(=O)O)c3csc(N)n3)C2=O)c1=O
K (Pseudomonas aeruginosa [1]): 1.7 ×10⁵ /M/s
MIC (Pseudomonas aeruginosa [2]): 0.78 µg/mL (≈ 1.19 µM)
fraction unbound at 16 h [3]: 0.05

C[C@H]1[C@H](NC(=O)/C(=N\OC(C)(C)C(=O)O)c2csc(N)n2)C(=O)N1C(=O)NS(=O)(=O)n1nc(-c2cc(=O)c(O)c[nH]2)n(CCS(N)(=O)=O)c1=O
K (Pseudomonas aeruginosa [1]): > 4 ×10⁵ /M/s
MIC (Pseudomonas aeruginosa [2]): < 0.6 µg/mL
half-life [4]: 102 h

C[C@H]1[C@H](NC(=O)/C(=N\OC(C)(C)C(=O)O)c2csc(N)n2)C(=O)N1C(=O)NS(=O)(=O)n1nc(-c2cc(=O)c(O)c[nH]2)n(CCCS(C)(=O)=O)c1=O
K (Pseudomonas aeruginosa [1]): 1.7 ×10⁵ /M/s
half-life [5]: 3 h
clearance [6]: 7.3 mL/min/kg
MIC (Pseudomonas aeruginosa [2]): 0.25 µg/mL (≈ 0.323 µM)
fraction unbound at 16 h [3]: 0.09
half-life [4]: 93 h
Vd [7]: 0.21 L/kg

C[C@H]1[C@H](NC(=O)/C(=N\OC(C)(C)C(=O)O)c2csc(N)n2)C(=O)N1C(=O)NS(=O)(=O)n1nc(-c2cc(=O)c(O)c[nH]2)n(CCCS(=O)(=O)c2ccccc2)c1=O
K (Pseudomonas aeruginosa [1]): > 4 ×10⁵ /M/s
MIC (Pseudomonas aeruginosa [2]): 1 µg/mL (≈ 1.19 µM)
fraction unbound at 16 h [3]: 0.03
half-life [4]: > 150 h

C[C@@H](O)[C@H]1C(=O)N2C(C(=O)O)=C(S[C@@H]3CN[C@H](C(=O)N(C)C)C3)[C@H](C)[C@H]12 [MEROPENEM]
K (Pseudomonas aeruginosa [1]): 4.9 ×10⁴ /M/s
MIC (Pseudomonas aeruginosa [2]): 1 µg/mL (≈ 2.61 µM)
half-life [4]: 95 h

CC[C@@H]1[C@H](NC(=O)/C(=N\OC(C)(C)C(=O)O)c2csc(N)n2)C(=O)N1C(=O)NS(=O)(=O)n1nc(-c2cc(=O)c(O)c[nH]2)n(CCCS(C)(=O)=O)c1=O
K (Pseudomonas aeruginosa [1]): 8.8 ×10⁵ /M/s
MIC (Pseudomonas aeruginosa [2]): 1 µg/mL (≈ 1.27 µM)
half-life [4]: 94 h

C[C@H]1[C@H](NC(=O)/C(=N\OC(C)(C)C(=O)O)c2csc(N)n2)C(=O)N1C(=O)NS(=O)(=O)n1nc(-c2cc(=O)c(O)c[nH]2)n(C[C@@H](O)CS(C)(=O)=O)c1=O
K (Pseudomonas aeruginosa [1]): 5.4 ×10⁵ /M/s
MIC (Pseudomonas aeruginosa [2]): 1 µg/mL (≈ 1.26 µM)
fraction unbound at 16 h [3]: 0.04
half-life [4]: 87 h

C[C@H]1[C@H](NC(=O)/C(=N\OC(C)(C)C(=O)O)c2csc(N)n2)C(=O)N1C(=O)NS(=O)(=O)n1nc(-c2cc(=O)c(O)c[nH]2)n(CCNS(C)(=O)=O)c1=O
K (Pseudomonas aeruginosa [1]): 4.1 ×10⁵ /M/s
MIC (Pseudomonas aeruginosa [2]): 0.5 µg/mL (≈ 0.645 µM)
fraction unbound at 16 h [3]: 0.08
half-life [4]: 61 h

CC[C@H]1[C@H](NC(=O)/C(=N\OC(C)(C)C(=O)O)c2csc(N)n2)C(=O)N1C(=O)NS(=O)(=O)n1nc(-c2cc(=O)c(O)c[nH]2)n(CCCS(C)(=O)=O)c1=O
K (Pseudomonas aeruginosa [1]): 3.6 ×10⁵ /M/s
half-life [5]: 2 h
clearance [6]: 12 mL/min/kg
MIC (Pseudomonas aeruginosa [2]): 0.5 µg/mL (≈ 0.634 µM)
half-life [4]: 98 h
Vd [7]: 0.35 L/kg

C[C@H]1[C@H](NC(=O)/C(=N\OC(C)(C)C(=O)O)c2csc(N)n2)C(=O)N1C(=O)NS(=O)(=O)n1nc(-c2cc(=O)c(O)c[nH]2)n(CCS(C)(=O)=O)c1=O
K (Pseudomonas aeruginosa [1]): 3.2 ×10⁵ /M/s
half-life [5]: 2.5 h
MIC90 (Pseudomonas aeruginosa [8]): 1 µg/mL (≈ 1.31 µM)
clearance [6]: 8.9 mL/min/kg
MIC (Pseudomonas aeruginosa [2]): 0.13 µg/mL (≈ 0.171 µM)
fraction unbound at 16 h [3]: 0.06
half-life [4]: 86 h
Vd [7]: 0.23 L/kg

C=CC[C@@H]1[C@H](NC(=O)/C(=N\OC(C)(C)C(=O)O)c2csc(N)n2)C(=O)N1C(=O)NS(=O)(=O)n1nc(-c2cc(=O)c(O)c[nH]2)n(CCCS(C)(=O)=O)c1=O
K (Pseudomonas aeruginosa [1]): 5.9 ×10⁵ /M/s
MIC (Pseudomonas aeruginosa [2]): 8 µg/mL (≈ 9.99 µM)
half-life [4]: 126 h

C[C@H]1[C@H](NC(=O)/C(=N\OC(C)(C)C(=O)O)c2csc(N)n2)C(=O)N1C(=O)NS(=O)(=O)n1nc(-c2cc(=O)c(O)cn2O)n(CCCS(C)(=O)=O)c1=O
K (Pseudomonas aeruginosa [1]): 1.5 ×10⁵ /M/s
MIC (Pseudomonas aeruginosa [2]): 4 µg/mL (≈ 5.06 µM)
fraction unbound at 16 h [3]: 0.12
half-life [4]: 82 h

C[C@H]1[C@H](NC(=O)/C(=N\OC(C)(C)C(=O)O)c2csc(N)n2)C(=O)N1C(=O)NS(=O)(=O)n1nc(-c2cc(=O)c(O)c[nH]2)n(CCC2(S(C)(=O)=O)CC2)c1=O
K (Pseudomonas aeruginosa [1]): 4.5 ×10⁵ /M/s
MIC (Pseudomonas aeruginosa [2]): 0.5 µg/mL (≈ 0.624 µM)
fraction unbound at 16 h [3]: 0.04
half-life [4]: 94 h

C[C@H]1[C@H](NC(=O)/C(=N\OC(C)(C)C(=O)O)c2nsc(N)n2)C(=O)N1C(=O)NS(=O)(=O)n1nc(-c2cc(=O)c(O)c[nH]2)n(CCCS(C)(=O)=O)c1=O
K (Pseudomonas aeruginosa [1]): 5 ×10⁵ /M/s
half-life [5]: 2 h
clearance [6]: 9.5 mL/min/kg
MIC (Pseudomonas aeruginosa [2]): 0.25 µg/mL (≈ 0.322 µM)
fraction unbound at 16 h [3]: 0.27
half-life [4]: 85 h
Vd [7]: 0.26 L/kg
